Like-named read-outs stand apart in the source and are kept apart here. Each block holds one compound with its values, some of them ahead of it.
Key:
[1] = water solubility; assay type: physicochemical
[2] = bioavailability / Biopharmaceutics Classification System class
[3] = tested on: cancer cells; experiment: in vitro EC50 against cancer cells; assay type: cell-based
[4] = in vivo; settings: BALB/c, mouse, tumor, subcutaneous, 2.5 mg/kg
[5] = clinical; settings: human, in vivo, po
[6] = mouse, in vivo
[7] = First-in-human clinical trial NCT03536728 Part 1: plasma pharmacokinetics and tolerability of oral AMXT 1501 dicaprate and DFMO

water solubility [1]: high
SMILES: NCCCC(N)(C(=O)O)C(F)F (centres unmarked) [DFMO, difluoromethylornithine]

SMILES: CCCCCCCCCC(=O)O.CCCCCCCCCC(=O)O.CCCCCCCCCCCCCCCC(=O)NCCCC[C@@H](N)C(=O)NCCCNCCCCNCCCN [AMXT 1501 dicaprate]
bioavailability [2]: low

SMILES: CCCCCCCCCCCCCCCC(=O)NCCCC[C@@H](N)C(=O)NCCCNCCCCNCCCN [AMXT 1501, D-lys(palmitoyl)-spermine]
EC50 ([3]; equivalent of 50 nM, read-out: plasma concentration equivalent to in vitro EC50): 0.028 µg/mL | EC50 ([3]; read-out: in vitro EC50 against cancer cells): 50 nM | Kp [4]: 14 | Cmax [5]: 794 ng/mL | AMXT 1501 tumor AUC [6]: 152,000 hr*ng/mL | duration of plasma levels ([7]; Cohort 5, over the 24-hour dosing time increment): sustained over the 24-hour dosing time increment | adverse effects observed in patients ([7]; Part 1 patients, mainly gastrointestinal (nausea and diarrhea)): modest Grades 1 and 2 adverse effects | Cmax ([7]; human, in vivo): < 1000 ng/mL | mean AMXT 1501 exposure versus dose ([7]; single or repeat PO dosing, dose levels of 160 mg AMXT 1501 and higher): increased in a dose-dependent manner

— US11865095B2, “Combination drug substance of polyamine transport inhibitor and DFMO” (Aminex Therapeutics, Inc., priority 2020, dated 2024)
